The values that follow come from patent publication US11364275B2, “Linear lipopeptide paenipeptins and methods of using the same” (priority 2017, dated 2022).

The term MIC denotes the smallest concentration in the dilution series that meets the test's criterion for growth inhibition. Read a high MIC as a less susceptible organism.

Where a SMILES comes first, the peptide text is derived from it. [ ]: non-standard residue; d: D form. The star is where a group is joined. ξ: configuration not given here. Thr(3ξ) = CC(O)[C@H](N)C(=O)O; Decanoyl = CCCCCCCCCC(=O)*; Heptanoyl = CCCCCCC(=O)*; Octanoyl = CCCCCCCC(=O)*; Orn = NCCC[C@H](N)C(=O)O; Dab = NCC[C@H](N)C(=O)O; ξDab = NCCC(N)C(=O)O

Series [1] deals with Acinetobacter baumannii ATCC 19606. Description: MIC of antibiotics with or without paenipeptin analogues (potentiation). It counts as cell-based. Conditions: A. baumannii ATCC 19606; for MIC of antibiotic at 0 μg/ml paenipeptin analogue: antibiotic alone; for Sensitization factor (rifampicin): MIC without / with 4 μg/mL paenipeptin. The text has this:
(§1) Gram-negative bacteria, including Acinetobacter and Klebsiella, are intrinsically resistant to the hydrophobic antibiotic rifampicin.

Series [2] concerns Klebsiella pneumoniae ATCC 13883. The description is as above. It counts as cell-based. Conditions: K. pneumoniae ATCC 13883; for MIC of antibiotic at 0 μg/ml paenipeptin analogue: antibiotic alone; for Sensitization factor (rifampicin): MIC without / with 4 μg/mL paenipeptin.
Excerpt: as §1

The test system of series [3] is Acinetobacter baumannii ATCC 19606. It is filed as cell-based. Conditions: ATCC 19606.
Description: (§2) The minimum inhibitory concentration (MIC) of paenipeptin analogues was determined using the broth microdilution method (Wirker, M. A. Methods for Dilution Antimicrobial Susceptibility Tests for Bacteria that Grow Aerobically: Approved Standard M07-A8; Clinical and Laboratory Standards Institute, Wayne, Pa., 2009). Seven reference strains (Acinetobacter baumannii ATCC 19606, Escherichia coli ATCC 25922, Klebsiella pneumoniae ATCC 13883, Pseudomonas aeruginosa ATCC 27853, Enterococcus faecium ATCC 19434, Staphylococcus aureus ATCC 29213 and methicillin-resistant S. aureus ATCC 43300) were subjected to MIC testing.
(§3) Paenipeptin analogues were two-fold diluted in tryptic soy broth (TSB; Becton Dickinson) and mixed with an equal volume of bacterial suspensions in TSB containing approximately 1.5×10^5 colony-forming units (CFU)/mL in a clear UV-sterilized 96-well microtiter plate (NBS, Corning Inc., Corning, N.Y.). […] The microtiter plate was incubated at 37° C. for 18-20 h.
Series [4] deals with Klebsiella pneumoniae ATCC 13883. It is filed as cell-based. Conditions: ATCC 13883.
Series [5] concerns Enterococcus faecium ATCC 19434. It is filed as cell-based. Conditions: ATCC 19434.
Description: as §2, §3
Series [6] has as its system Staphylococcus aureus ATCC 29213. It is filed as cell-based. The conditions noted are these: ATCC 29213.
Series [7] relates to methicillin-resistant S. aureus ATCC 43300. It is filed as cell-based, Staphylococcus aureus. Conditions: ATCC 43300.
Description: as §2, §3
The subject of series [8] is rabbit red blood cells. As to the kind of experiment: Hemolytic activity. It counts as cell-based. The conditions noted are these: for Hemolysis: relative to Triton X-100. The method, then:
Hemolytic activity was evaluated using defibrinated rabbit blood in a 96-well plate as described previously. A nonionic surfactant Triton X-100, which is capable of lysing red blood cells (RBCs), was used at 0.1% as a positive control. Briefly, rabbit blood (Hardy Diagnostics, Santa Maria, Calif.) was diluted with phosphate buffered saline (PBS; pH 7.2) at a 1:19 ratio (v/v) and free hemoglobin was removed by washing RBCs and centrifugation four times at 1,000×g at 4° C. for 5 min. Aliquots (50 μL) of washed RBCs were incubated with 150 μL two-fold dilutions of paenipeptin analogues at final concentrations of 16-128 μg/mL at 37° C. for 30 min in a microtiter plate (NBS, Corning Inc.). After incubation, treated RBCs were gently mixed by repeated pipetting. Aliquots (20 μL) of the cell suspension were mixed with 200 μL PBS in a new 96-well plate and centrifuged at 2,204×g for 10 min. The supernatant was transferred to a new 96-well plate for absorbance measurement at 415 nm using a Cell Imaging Multimode Reader (Cytation 3, BioTek; Winooski, Vt.). The percent hemolysis observed after exposure to each paenipeptin analogue was calculated relative to Triton X-100.

In series [9] the test system is Escherichia coli ATCC 25922. It is filed as cell-based. The conditions noted are these: ATCC 25922.
Description: as §2, §3
In series [10] the test system is Pseudomonas aeruginosa ATCC 27853. It counts as cell-based. Conditions: ATCC 27853.

In the case of `CC1(C)S[C@@H]2[C@H](NC(=O)[C@H](N)c3ccccc3)C(=O)N2[C@H]1C(=O)O` [Ampicillin, ampicillin, reference compound], the “MIC of antibiotic at 0 μg/ml paenipeptin analogue” value in [1] is on record as greater than 32 μg/ml; in series [2], 32 μg/ml.

For `CCCCCCC(=O)N[C@@H](CCN)C(=O)N[C@H](C(=O)N[C@@H](CCN)C(=O)N[C@H](Cc1ccccc1)C(=O)N[C@@H](CC(C)C)C(=O)N[C@@H](CCN)C(=O)N[C@@H](C(=O)N[C@@H](CC(C)C)C(=O)N[C@@H](CO)C(N)=O)C(C)C)C(C)C` [Analogue 2] (Heptanoyl-[Dab]V[Dab][dF]L[Dab][dV]LS-NH2), the MIC in series [3], in [4], in series [5], in [6] and in series [7] was greater than 32 µg/mL each time. The Hemolysis in series [8] (16 μg/mL) was −0.17 ± 0.19%; in series [8] (32 μg/mL) it was 0.32 ± 0.74%; in [8] (64 μg/mL), 0.79 ± 0.63%; in series [8] (128 μg/mL) it was 0.95 ± 0.45%. For the same compound, the “MIC of rifampicin at 2 μg/mL of paenipeptin analogue” value in series [1] worked out at 0.125 μg/ml; in series [2], 0.0156 μg/ml. Further, the “MIC of rifampicin at 4 μg/mL of paenipeptin analogue” value in series [1] was 0.0313-0.0625 μg/ml; in series [2], 0.0039 μg/ml. The “Sensitization factor (rifampicin)” value in series [1] is 256-512; in series [2], 4,096.

With `CCCCCCC(=O)N[C@@H](CCN)C(=O)N[C@H](C(=O)N[C@@H](CCN)C(=O)N[C@H](Cc1ccccc1)C(=O)N[C@@H](CC(C)C)C(=O)N[C@@H](CCN)C(=O)N[C@@H](C(=O)N[C@@H](CC(C)C)C(=O)N[C@@H](CO)C(N)=O)C(C)C)[C@@H](C)CC` [Analogue 3] (Heptanoyl-[Dab]I[Dab][dF]L[Dab][dV]LS-NH2), the minimum inhibitory concentration (MIC) in series [3], in series [5], in series [6] and in series [7] was greater than 32 µg/mL in each case. The Hemolysis in series [8] (16 μg/mL) is 0.18 ± 0.54%; in series [8] (32 μg/mL) it was 0.78 ± 0.30%; in series [8] (64 μg/mL), 1.18 ± 0.68%; in series [8] (128 μg/mL), 1.77 ± 0.81%. For the same compound, the “hemolytic activity (in words)” value in series [8] (128 μg/mL) is listed as “little hemolysis”. For the same compound, the “MIC of rifampicin at 2 μg/mL of paenipeptin analogue” value in [1] is 0.0078 μg/ml; in series [2], 0.0039 μg/ml. Also, in series [1], the “Sensitization factor (rifampicin)” value was 4,096. Moreover, the “MIC of rifampicin at 4 μg/mL of paenipeptin analogue” value in series [2] was <0.00098-0.00195 μg/ml.

`CCCCCCC(=O)N[C@@H](CCN)C(=O)N[C@@H](Cc1ccccc1)C(=O)N[C@@H](CCN)C(=O)N[C@H](Cc1ccccc1)C(=O)N[C@@H](CC(C)C)C(=O)N[C@@H](CCN)C(=O)N[C@@H](C(=O)N[C@@H](CC(C)C)C(=O)N[C@@H](CO)C(N)=O)C(C)C` [Analogue 4] (Heptanoyl-[Dab]F[Dab][dF]L[Dab][dV]LS-NH2): the MIC in [9] is 1 to 4 µg/mL; in [10], 2 to 4 µg/mL; in series [5], greater than 32 µg/mL; in [6], no less than 32 µg/mL. The Hemolysis in [8] (16 μg/mL) is recorded as 0.28 ± 1.11%; in series [8] (32 μg/mL), 0.49 ± 1.22%; in [8] (64 μg/mL), 0.60 ± 1.35%; in series [8] (128 μg/mL) it was 1.28 ± 1.65%.

In the case of `CCCCCCCC(=O)N[C@@H](CCN)C(=O)NC(CCN)C(=O)N[C@@H](CCN)C(=O)N[C@H](Cc1ccccc1)C(=O)N[C@@H](CC(C)C)C(=O)N[C@@H](CCN)C(=O)N[C@@H](C(=O)N[C@@H](CC(C)C)C(=O)N[C@@H](CCN)C(N)=O)C(C)C` (stereo partly shown) [Analogue 10] (Octanoyl-[Dab][ξDab][Dab][dF]L[Dab][dV]L[Dab]-NH2), the MIC is greater than 32 µg/mL in [3]; greater than 32 µg/mL in [9]; greater than 32 µg/mL in [4]; 16 to 32 µg/mL in series [10]; greater than 32 µg/mL in series [5]; no less than 32 µg/mL in [6]. For the same compound, the MIC in series [7] was greater than 32 µg/mL. For the same compound, the Hemolysis in series [8] (16 μg/mL) stood at 0.37 ± 0.62%; in series [8] (32 μg/mL), 0.38 ± 0.62%; in [8] (64 μg/mL), 0.41 ± 0.53%; in series [8] (128 μg/mL), 0.80 ± 0.40%. In addition, the “MIC of rifampicin at 4 μg/mL of paenipeptin analogue” value in series [1] is reported as 0.0313-0.0625 μg/ml; in series [2], 0.0625 μg/ml. Also, the results for the “Sensitization factor (rifampicin)” value in [1] and in series [2] were 256-512 and 256, respectively. Moreover, the “MIC of rifampicin at 2 μg/mL of paenipeptin analogue” value in series [2] is 0.0625-0.125 μg/ml.

In the case of `CCCCCCCC(=O)N[C@@H](CCCN)C(=O)N[C@H](C(=O)N[C@@H](CCCN)C(=O)N[C@H](Cc1ccccc1)C(=O)N[C@@H](CC(C)C)C(=O)N[C@@H](CCCN)C(=O)N[C@@H](C(=O)N[C@@H](CC(C)C)C(=O)N[C@@H](CO)C(N)=O)C(C)C)[C@@H](C)CC` [Analogue 11] (Octanoyl-[Orn]I[Orn][dF]L[Orn][dV]LS-NH2), the MIC in series [4], in [5] and in series [6] was greater than 32 µg/mL each time. Moreover, the Hemolysis was determined as 0.86 ± 0.72% in series [8] (16 μg/mL), 0.44 ± 0.30% in series [8] (32 μg/mL), 0.69 ± 0.64% in series [8] (64 μg/mL) and 1.12 ± 0.47% in series [8] (128 μg/mL). Besides, the “MIC of rifampicin at 2 μg/mL of paenipeptin analogue” value in series [1] is listed as 0.0625 μg/ml. For the same compound, the “MIC of rifampicin at 4 μg/mL of paenipeptin analogue” value in [1] is given as 0.0156-0.0313 μg/ml; in series [2] it was 0.0078-0.0156 μg/ml. The results for the “Sensitization factor (rifampicin)” value in series [1] and in [2] were 512-1,024 and 1,024-2,048, respectively.

Regarding `CCCCCCCCCC(=O)N[C@@H](CCN)C(=O)N[C@H](C(=O)N[C@H](C(=O)N[C@H](CC(C)C)C(=O)N[C@@H](CC(C)C)C(=O)N[C@@H](CCN)C(=O)N[C@@H](C(=O)N[C@@H](CC(C)C)C(=O)N[C@@H](CO)C(N)=O)C(C)C)C(C)O)[C@@H](C)CC` (stereo partly drawn) [Analogue 13] (Decanoyl-[Dab]I[Thr(3ξ)][dL]L[Dab][dV]LS-NH2), the MIC in series [3] was greater than 32 µg/mL; in series [9], greater than 32 µg/mL; in [4], greater than 32 µg/mL; in series [10] it was greater than 32 µg/mL; in series [5], no less than 32 µg/mL; in [6], greater than 32 µg/mL. For the same compound, the MIC in [7] is greater than 32 µg/mL. Also, the Hemolysis in series [8] (16 μg/mL) was 1.25 ± 0.71%; in series [8] (32 μg/mL), 5.06 ± 1.14%; in series [8] (64 μg/mL), 10.0 ± 1.03%; in [8] (128 μg/mL) it was 24.9 ± 2.71%. For the same compound, the “MIC of rifampicin at 2 μg/mL of paenipeptin analogue” value in series [1] and in [2] was greater than 0.125 μg/ml each time. Further, the “MIC of rifampicin at 4 μg/mL of paenipeptin analogue” value in series [1] is given as greater than 0.125 μg/ml; in [2], greater than 2 μg/ml.

As to `CC[C@H]1OC(=O)[C@H](C)[C@@H](O[C@H]2C[C@@](C)(OC)[C@@H](O)[C@H](C)O2)[C@H](C)[C@@H](O[C@@H]2O[C@H](C)C[C@H](N(C)C)[C@H]2O)[C@](C)(O)C[C@@H](C)C(=O)[C@H](C)[C@@H](O)[C@]1(C)O` [Erythromycin, erythromycin, reference compound], the “MIC of antibiotic at 0 μg/ml paenipeptin analogue” value in [1] is given as 32 μg/ml; in [2] it was greater than 32 μg/ml.

In the case of `CN[C@H](CC(C)C)C(=O)N[C@H]1C(=O)N[C@@H](CC(N)=O)C(=O)N[C@H]2C(=O)N[C@H]3C(=O)N[C@H](C(=O)N[C@H](C(=O)O)c4cc(O)cc(O)c4-c4cc3ccc4O)[C@H](O)c3ccc(c(Cl)c3)Oc3cc2cc(c3O[C@@H]2O[C@H](CO)[C@@H](O)[C@H](O)[C@H]2O[C@H]2C[C@](C)(N)[C@H](O)[C@H](C)O2)Oc2ccc(cc2Cl)[C@H]1O` [Vancomycin, vancomycin, reference compound], the “MIC of antibiotic at 0 μg/ml paenipeptin analogue” value in series [1] and in series [2] was greater than 32 μg/ml throughout.
